Test results: article PMC10958125 (Clinical and Translational Medicine, 2024)
Where two headings read alike, the source gives them in different places.

How the values were obtained:
[1] = test system: metastatic prostate cancer patients; format: in vivo; details: lycopene alone for 2 weeks from day 1, dose escalation cohort
[2] = Plasma lycopene levels (HPLC); format: in vivo, human
[3] = test system: Vascular endothelial growth factor A (VEGF‐A); test: Plasma VEGF-A, sandwich ELISA; format: in vivo, human
Method: (§1) Vascular endothelial growth factor A (VEGF‐A) was measured on Ethylenediaminetetraacetic acid plasma from subjects 1−12 of the dose escalation cohort, with a commercial sandwich ELISA kit (R&D Systems). Circulating endothelial cells (CECs) were measured with an 11‐colour flow cytometry scheme using a method adopted from a previously published protocol.[36] The definition for CECs was viable cells (alive, intact nucleus) that were positive for surface CD31 and CD34, and that were negative for haematopoietic marker CD45. Additional exploratory markers were CD105 and CD146. […] Samples were collected before the scheduled docetaxel dose for that day.
(§2) Both VEGF‐A and CEC levels were analysed using linear mixed‐effects regression models with a subject‐level random effect included to account for within‐subject correlation. Models were adjusted for the individual's baseline levels in both outcomes. All analyses and hypothesis testing were completed on the log scale and back transformed to estimate fold changes. Analysis was completed in the R environment,[37] with all tests level α = .05. The VEGF‐A levels were near‐linear over time, so time was treated as continuous, and slopes between groups were compared using Wald tests. Levels of CECs were non‐linear over time; therefore, time was treated as a fixed factor in the CEC model, with a time‐by‐dose interaction effect. Pairwise tests of differences between the CEC model‐based estimated means at each time point after zero were completed using the emmeans package.[38] As these analyses are exploratory/hypothesis generating, no multiple comparison adjustments have been made. Simple Bonferroni adjustments would lead to p‐value cutoffs of .01 (five comparisons) and .0033 (15 comparisons) for the VEGF‐A and CEC analyses, respectively.

[4] = test system: Circulating endothelial cells (CECs); test: Circulating endothelial cells, flow cytometry; format: in vivo, human
Method: as §1, §2

[5] = test system: Insulin‐like growth factor binding protein 3 (IGFBP‐3); test: Plasma IGFBP-3, sandwich ELISA; format: in vivo, human; details: all lycopene doses, any time point
Method: Insulin‐like growth factor binding protein 3 (IGFBP‐3) levels were measured in duplicate by sandwich ELISA assays using kits from eBioscience in subjects 1–12 of the dose escalation cohort.

[6] = test system: metastatic prostate cancer patients
[7] = target: IGF‐1R (Homo sapiens, UniProt P08069); test: Ligand-dependent phosphorylation of IGF-1R(Y1131) in PBMCs stimulated ex vivo with rhIGF-1; details: patients
Sequence of IGF‐1R (P08069 31-1367): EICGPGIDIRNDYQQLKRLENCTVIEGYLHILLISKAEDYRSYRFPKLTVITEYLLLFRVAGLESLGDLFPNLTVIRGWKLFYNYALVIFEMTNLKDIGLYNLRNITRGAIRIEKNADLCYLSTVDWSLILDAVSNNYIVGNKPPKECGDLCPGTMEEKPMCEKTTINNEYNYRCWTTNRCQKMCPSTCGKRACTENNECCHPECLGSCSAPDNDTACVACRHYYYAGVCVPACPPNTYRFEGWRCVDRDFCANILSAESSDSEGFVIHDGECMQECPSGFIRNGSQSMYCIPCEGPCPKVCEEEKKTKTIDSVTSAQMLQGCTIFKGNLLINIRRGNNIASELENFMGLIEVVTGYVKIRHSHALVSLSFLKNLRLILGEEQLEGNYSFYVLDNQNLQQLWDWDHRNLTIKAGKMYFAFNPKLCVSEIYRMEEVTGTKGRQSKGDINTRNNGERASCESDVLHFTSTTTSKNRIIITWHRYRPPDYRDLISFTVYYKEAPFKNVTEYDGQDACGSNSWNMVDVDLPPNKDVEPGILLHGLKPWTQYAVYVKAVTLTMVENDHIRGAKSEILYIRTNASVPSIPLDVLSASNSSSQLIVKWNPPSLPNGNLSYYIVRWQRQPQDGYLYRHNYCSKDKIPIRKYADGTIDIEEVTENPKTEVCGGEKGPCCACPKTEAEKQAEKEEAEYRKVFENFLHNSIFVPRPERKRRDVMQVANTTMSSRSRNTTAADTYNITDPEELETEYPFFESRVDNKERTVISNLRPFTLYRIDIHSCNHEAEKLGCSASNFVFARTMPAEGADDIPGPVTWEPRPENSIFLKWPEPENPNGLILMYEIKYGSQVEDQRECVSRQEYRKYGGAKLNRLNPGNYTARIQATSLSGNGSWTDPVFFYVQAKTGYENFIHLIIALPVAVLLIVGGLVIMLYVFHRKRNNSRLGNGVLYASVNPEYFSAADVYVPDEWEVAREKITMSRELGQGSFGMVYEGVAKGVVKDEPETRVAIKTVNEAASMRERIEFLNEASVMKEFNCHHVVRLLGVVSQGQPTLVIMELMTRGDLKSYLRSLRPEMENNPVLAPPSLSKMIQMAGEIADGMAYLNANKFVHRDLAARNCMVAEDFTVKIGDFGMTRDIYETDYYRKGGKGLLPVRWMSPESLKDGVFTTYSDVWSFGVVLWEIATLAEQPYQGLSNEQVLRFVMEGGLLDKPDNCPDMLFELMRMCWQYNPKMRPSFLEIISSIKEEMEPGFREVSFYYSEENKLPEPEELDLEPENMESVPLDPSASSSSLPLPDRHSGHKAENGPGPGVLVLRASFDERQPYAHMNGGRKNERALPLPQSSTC
Description: Briefly, ligand‐dependent phosphorylation of the IGF‐1R was estimated using an ex vivo assay that utilised peripheral blood mononuclear cells (PBMCs). […] The cells were then lysed, and the quantity of phosphoIGF‐1R(Y1131) was estimated by an ELISA assay (Cell Signalling Technologies). Ligand‐dependent phosphorylation was defined as the ratio of pIGF‐1R(Y1131) in ligand‐stimulated PBMCs to the same parameter for unstimulated PBMCs. […] Thus, the changes in the level of ligand‐dependent phosphorylation over time were analysed by both parametric and non‐parametric methods.
Measurement of IGF-1R (Y1131) phosphorylation in PBMNCs after ex vivo ligand treatment. […] The primary analyte was phosphorylation of the IGF-1R on Y1131, measured by ELISA on lysates of PBMCs treated (or not) with recombinant human IGF-1.
Whole blood (10mL) is collected into an ACD (acid citrate-dextrose) Vacutainer®. Peripheral blood mononuclear cells are collected by density gradient centrifugation using LSM Lymphoprep® and an Accuspin® 50mL tube (Sigma). The mononuclear cells are collected, washed x 2 with serum-free RPMI1640 medium, then resuspended in 1mL of RPMI 1640 medium + 0.1% BSA. Cells are then aliquoted into 1mL microcentrifuge tubes, 0.5mL of cells per tube per condition.
Cells are incubated for 1-2hr at 37C, then rhIGF-1 (Peprotech) is added to 50-500ng/mL final concentration. Incubation continues for 15min at 37C.
Cells are then pelleted and washed with 1mL of cold RPMI 1640 medium (no protein).
The cell pellet is lysed with 120mcL of Cell Signalling® ELISA buffer containing phosphatase inhibitors and protease inhibitors. The lysate can be stored at -80C or assayed immediately.
For total protein measurement follow the BCA method (BioRad).
For IGF-1R(Y1131) ELISA (Cell Signalling® #7302) proceed per kit instructions. […]
The standard will be used as a series of 2-fold dilutions, being diluted with assay buffer from the ELISA kit. […] Results will be expressed as X units of pIGF-1R protein per amount of protein in the lysate. The protein is measured by the BCA method, as mcg/mL.

[8] = human, in vivo
[9] = test system: metastatic prostate cancer patients; design: method as in PMID 15470213; details: TAX327 trial, cited from earlier work
[10] = test system: metastatic prostate cancer patients; design: method as in PMID 28753384; details: FIRSTANA trial, cited from earlier work
[11] = test system: metastatic prostate cancer patients; details: cited from earlier work
[12] = clinical; details: human, in vivo, iv, 75 mg/m2

Q: Which “Adverse events during lycopene alone lead-in” value [1] does the source give for CC(C)=CCC/C(C)=C/C=C/C(C)=C/C=C/C(C)=C/C=C/C=C(C)/C=C/C=C(C)/C=C/C=C(\C)CCC=C(C)C [lycopene] here?
A: Its value is “No participant reported any adverse event”.

Q: What about the “Increase of plasma lycopene concentration from baseline” value ([2]; 30 mg daily synthetic lycopene with docetaxel) of the same compound?
A: The value was “approximately 1.6 fold”.

Q: And the “Peak concentration of lycopene in plasma at 150 mg/day compared to 30 and 90 mg/day” value ([2]; Figure 2B)?
A: Its value is “did not further increase the peak concentration”.

Q: What about the “Mean lycopene concentration in plasma” value ([2]; after 99 days of treatment) of the same compound?
A: The value was “.82 ± .49 µmol/L”.

Q: What about the “Mean lycopene concentration in plasma” value ([2]; baseline) of the same compound?
A: The value was “.48 ± .37 µmol/L”.

Q: And the “Increase of plasma lycopene during treatment” value ([2]; baseline to 99 days)?
A: Its value is 93.4%.

Q: And the “Change of plasma VEGF-A level over time” value ([3]; lycopene 30 mg/day + docetaxel/ADT)?
A: Its value is “tended to decrease”.

Q: And the “Change of plasma VEGF-A level over time” value ([3]; lycopene 90 mg/day + docetaxel/ADT)?
A: The value was “little change”.

Q: What about the “Change of plasma VEGF-A level over time” value ([3]; lycopene 150 mg/day + docetaxel/ADT) of the same compound?
A: Its value is “to increase”.

Q: And the “Change of CEC number vs pre-treatment” value ([4]; lycopene 30 mg/day + docetaxel/ADT, all time points)?
A: The value was “decreased”.

Q: What about the “Change of CEC number vs pre-treatment” value ([4]; lycopene 90 mg daily + docetaxel/ADT) of the same compound?
A: The value was “increased CEC levels at all time points”.

Q: What about the “Change of CEC number vs pre-treatment” value ([4]; lycopene 150 mg daily + docetaxel/ADT) of the same compound?
A: Its value is “significant increase in CECs only on day 57”.

Q: What about the “Change of plasma IGFBP-3 from pretreatment level” value [5] of the same compound?
A: The value was “no statistically significant differences”.

Q: And the “Maximum tolerated dose (MTD) of synthetic lycopene” value ([6]; in combination with docetaxel 75 mg/m^2 and ADT)?
A: The value was 150 mg/day.

Q: And the Dose-limiting toxicity ([6]; in vivo)?
A: The Dose-limiting toxicity was “No DLT”.

Q: What about the “Probability of toxicity, dose level 1” value ([6]; male, human, in vivo) of the same compound?
A: Its value is 0.

Q: And the “Probability of toxicity, dose level 2” value ([6]; male, human, in vivo)?
A: The value was “.009”.

Q: What about the “Probability of toxicity, dose level 3” value ([6]; male, human, in vivo) of the same compound?
A: The value was “.106”.

Q: What about the “Change of ligand-dependent phosphorylation of IGF1-R(Y1131)” value (shortened to “Change … of IGF1-R(Y1131)”) ([7]; 150 mg lycopene daily, day 78, p = .048) of the same compound?
A: The value was “borderline decrease”.

Q: What about the “Change … of IGF1-R(Y1131)” value ([7]; 150 mg lycopene daily, day 99, p = .027) of the same compound?
A: The value was “significant decrease”.

Q: What about the “Change … of IGF1-R(Y1131)” value ([7]; 30 or 90 mg/day lycopene, day 15 to 99) of the same compound?
A: Its value is “did not show a consistent change”.

Q: Which results are given for CC(=O)O[C@@]12CO[C@@H]1C[C@H](O)[C@@]1(C)C(=O)[C@H](O)C3=C(C)[C@@H](OC(=O)[C@H](O)[C@@H](NC(=O)OC(C)(C)C)c4ccccc4)C[C@@](O)([C@@H](OC(=O)c4ccccc4)[C@H]21)C3(C)C [docetaxel]?
A: Plasma docetaxel C max, geometric mean [8]: 2810 ng/mL; Plasma docetaxel AUClast, geometric mean ([8]; iv, 75 mg/m2): 2810 ng·h/mL; Alopecia, % any ([9]; any grade): 65.1%; Anaemia, % any ([9]; any grade): 66.5%; Anorexia, % any ([9]; any grade): 16.6%; Arthralgia, % any ([9]; any grade): 8.1%; Cough, % any ([9]; any grade): 12.3%; Diarrhoea, % any ([9]; any grade): 31.6%; Dysgeusia, % any ([9]; any grade): 18.4%; Dyspnoea, % any ([9]; any grade): 15.1%; Fatigue, % any ([9]; any grade): 53.3%; Febrile neutropenia, % any ([9]; any grade): 2.7%; Infection, % any ([9]; any grade): 32.2%; Nail changes, % any ([9]; any grade): 29.5%; Nausea, % any ([9]; any grade): 41%; Neutropenia, % any ([9]; any grade): 40.9%; Peripheral oedema, % any ([9]; any grade): 18.1%; Rash/desquamation, % any ([9]; any grade): 6%; Sensory/motor neuropathy, % any ([9]; any grade): 30.4%; Stomatitis/pharyngitis, % any ([9]; any grade): 19.6%; Tearing, % any ([9]; any grade): 9.9%; Thrombocytopenia, % any ([9]; any grade): 3.4%; Vomiting, % any ([9]; any grade): 16.9%; Anaemia, % grade 3+ [9]: 4.9%; Anorexia, % grade 3+ [9]: 1.2%; Arthralgia, % grade 3+ [9]: .6%; Cough, % grade 3+ [9]: 0%; Diarrhoea, % grade 3+ [9]: 2.1%; Dysgeusia, % grade 3+ [9]: 0%; Dyspnoea, % grade 3+ [9]: 2.7%; Fatigue, % grade 3+ [9]: 4.5%; Febrile neutropenia, % grade 3+ [9]: 2.7%; Infection, % grade 3+ [9]: 5.7%; Nausea, % grade 3+ [9]: 2.7%; Neutropenia, % grade 3+ [9]: 32%; Peripheral oedema, % grade 3+ [9]: .3%; Sensory/motor neuropathy, % grade 3+ [9]: 1.8%; Stomatitis/pharyngitis, % grade 3+ [9]: .9%; Tearing, % grade 3+ [9]: .6%; Thrombocytopenia, % grade 3+ [9]: .6%; Vomiting, % grade 3+ [9]: 1.5%; Alopecia, % any ([10]; any grade): 39%; Anaemia, % any ([10]; any grade): 99.5%; Anorexia, % any ([10]; any grade): 17.1%; Arthralgia, % any ([10]; any grade): 8%; Constipation, % any ([10]; any grade): 18.1%; Cough, % any ([10]; any grade): 9.8%; Diarrhoea, % any ([10]; any grade): 37%; Dysgeusia, % any ([10]; any grade): 18.1%; Dyspnoea, % any ([10]; any grade): 9.6%; Fatigue, % any ([10]; any grade): 28.9%; Febrile neutropenia, % any ([10]; any grade): 8.3%; Infection, % any ([10]; any grade): 7.2%; Nail changes, % any ([10]; any grade): 9%; Nausea, % any ([10]; any grade): 22.7%; Neutropenia, % any ([10]; any grade): 89%; Pain in extremity, % any ([10]; any grade): 9.8%; Peripheral oedema, % any ([10]; any grade): 20.4%; Rash/desquamation, % any ([10]; any grade): 5.9%; Sensory/motor neuropathy, % any ([10]; any grade): 25.1%; Stomatitis/pharyngitis, % any ([10]; any grade): 13.7%; Tearing, % any ([10]; any grade): 9.6%; Thrombocytopenia, % any ([10]; any grade): 32.6%; Vomiting, % any ([10]; any grade): 11.6%; Anaemia, % grade 3+ [10]: 5.5%; Anorexia, % grade 3+ [10]: .3%; Arthralgia, % grade 3+ [10]: 1%; Constipation, % grade 3+ [10]: 1%; Cough, % grade 3+ [10]: 0%; Diarrhoea, % grade 3+ [10]: 2.3%; Dysgeusia, % grade 3+ [10]: 0%; Dyspnoea, % grade 3+ [10]: .3%; Fatigue, % grade 3+ [10]: .3%; Febrile neutropenia, % grade 3+ [10]: 8.3%; Infection, % grade 3+ [10]: 4.1%; Nausea, % grade 3+ [10]: .8%; Neutropenia, % grade 3+ [10]: 78.9%; Pain in extremity, % grade 3+ [10]: 1%; Peripheral oedema, % grade 3+ [10]: 1.6%; Sensory/motor neuropathy, % grade 3+ [10]: 2.1%; Stomatitis/pharyngitis, % grade 3+ [10]: .8%; Tearing, % grade 3+ [10]: 0%; Thrombocytopenia, % grade 3+ [10]: 1.6%; Vomiting, % grade 3+ [10]: .8%; Increased overall survival ([11]; mCRPC): 2.4 months; Increased overall survival ([11]; mCSPC): 16.8 months; AUC(0-inf) [12]: 3020 ng·h/mL
